Like-named read-outs stand apart in the source and are kept apart here.

One test deals with PLP-Ia. In kind it is biochemical, Achromobacter lyticus M 497-1.
Test [1] concerns the target PLP prior to Polymerization (Achromobacter lyticus, UniProt P15636). The test is described as follows: Activity to substrates (substrate specificity), PLP prior to polymerization. The test is classed as biochemical. The following applies: enzyme: PLP prior to Polymerization; pH 9.5, 30°C; Benzoyl lysine-p-nitroanilide = 100. The procedure: (§1) The activity of the enzyme was measured as follows. […] After preliminarily warming at 30°C, 0.1 mℓ of the enzyme was added to the mixture and the mixture was reacted accurately for 25 minutes at 30°C. After completion of the reaction, 1.0 mℓ of a 45% acetic acid aqueous solution was added to discontinue the reaction. Then, the reaction liquid was colorimetrically measured at wavelength of 405 nm to determine absorbance. As an enzyme unit, an amount of enzyme producing 1 µmole/min of p-nitroaniline at 30°C was made 1 unit (u). Enzyme titer was calculated according to the following equation. [formula] […] Thereafter, activities to the respective substrates were measured according to the method for measuring activity described above. Results of Table 8 were obtained.

The target of test [2] is water-soluble cross-linked polymer of PLP (Achromobacter lyticus, UniProt P15636). In words: Activity to substrates (substrate specificity), cross-linked polymer. The test is classed as biochemical. The following applies: enzyme: Cross-Linked Polymer (0.144 u); pH 9.5, 30°C; Benzoyl lysine-p-nitroanilide = 100. How it is done: as §1
The target in a further test is Achromobacter protease I (Achromobacter lyticus, UniProt P15636). The following applies: cited from earlier work.
Sequence of Achromobacter protease I (P15636 206-473 limits assumed): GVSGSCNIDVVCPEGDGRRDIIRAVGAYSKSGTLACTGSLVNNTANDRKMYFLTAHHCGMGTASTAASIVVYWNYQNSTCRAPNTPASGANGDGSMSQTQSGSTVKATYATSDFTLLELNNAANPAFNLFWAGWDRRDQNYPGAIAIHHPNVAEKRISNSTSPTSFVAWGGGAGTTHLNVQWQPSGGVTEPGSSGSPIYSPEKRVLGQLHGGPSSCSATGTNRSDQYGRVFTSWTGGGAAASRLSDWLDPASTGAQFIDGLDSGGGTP

Sequence of PLP prior to Polymerization (P15636 206-473 limits assumed): as above
Sequence of water-soluble cross-linked polymer of PLP (P15636 206-473 limits assumed): as above

On to `O[C@H](CS)[C@H](O)CS` (racemic) [dithiothreitol], for which the “Relative Activity” value in the test on PLP-Ia (1000 µM) is on record as 103.9%.
As to `CC(=O)N[C@@H](Cc1ccccc1)C(=O)Nc1ccc([N+](=O)[O-])cc1` [Acetylphenylalanine-p-nitroanilide], the “Relative Activity” value in test [1] and in test [2] was 0.00% in each case.
On to `C[C@H](N)C(=O)Nc1ccc([N+](=O)[O-])cc1` [Alanine-p-nitroanilide], for which the “Relative Activity” value in test [1] and in test [2] was 0.00% in each case.
In the case of `N=C(N)NCCC[C@H](NC(=O)c1ccccc1)C(=O)Nc1ccc([N+](=O)[O-])cc1` [Benzoyl arginine-p-nitroanilide], the results for the “Relative Activity” value in test [1] and in test [2] were 0.01% and 0.04%, respectively.
On to `NCCCC[C@H](NC(=O)c1ccccc1)C(=O)Nc1ccc([N+](=O)[O-])cc1` [Benzoyl lysine-p-nitroanilide], for which the “Relative Activity” value in test [1] and in test [2] was 100% each time.
For `O=C(N[C@@H](Cc1ccc(O)cc1)C(=O)Nc1ccc([N+](=O)[O-])cc1)c1ccccc1` [Benzoyl tyrosine-p-nitroanilide], the “Relative Activity” value in test [1] and in test [2] was 0.00% each time.
For `[Ca+2].[Cl-].[Cl-]` [CaCℓ₂], the “Relative Activity” value with PLP-Ia (1000 µM) was 102.2%.
As for `N[C@@H](CCC(=O)O)C(=O)Nc1ccc([N+](=O)[O-])cc1` [Glutamic acid-p-nitroanilide], the “Relative Activity” value in test [1] and in test [2] was 0.00% in each case.
With `[Cl][Hg][Cl]` [HgCℓ₂], the “Relative Activity” value with PLP-Ia (100 µM) was 109.4%.
In the case of `N[C@@H](CS)C(=O)O` [L-cystein], the “Relative Activity” value with PLP-Ia (1000 µM) was determined as 97.8%.
As for `CC(C)C[C@H](N)C(=O)Nc1ccc([N+](=O)[O-])cc1` [Leucine-p-nitroanilide], the “Relative Activity” value in test [1] and in test [2] was 0.00% each time.
Regarding `NCCCC[C@H](N)C(=O)Nc1ccc([N+](=O)[O-])cc1` [Lysine-p-nitroanilide], the “Relative Activity” value in test [1] is reported as 2.4%; in test [2], 5.6%.
`[Cl-].[Na+]` [NaCℓ₂]: the “Relative Activity” value in the test on PLP-Ia (bz-lys-p-na amidase assay, pH 9.5, 25 min, 1000 µM) is given as 99.0%.
With `[Cl-].[Cl-].[Zn+2]` [ZnCℓ₂], in the test with PLP-Ia, the “inhibition of the enzyme (in words)” value is given as “inhibited”. In the test with PLP-Ia (1000 µM), the “Relative Activity” value amounted to 44.1%.
Take `O=C(O)CI` [monoiodoacetate]: in the test with PLP-Ia (1000 µM), the “Relative Activity” value was found to be 84.4%.
On to `c1cnc2c(c1)ccc1cccnc12` [o-phenanthroline], for which the “Relative Activity” value in the test with PLP-Ia (1000 µM) worked out at 99.3%. Further, the “inhibition of the enzyme (in words)” value at Achromobacter protease I is given as “not inhibited”.
Take `O=C(O)c1cc[c]([Hg][Cl])cc1` [p-chloromercury benzoate]: in the test with PLP-Ia (100 µM), the “Relative Activity” value turned out to be 94.8%. For the same compound, the “inhibition of the enzyme (in words)” value on Achromobacter protease I is reported as “not inhibited”.
For `O=S(=O)(F)Cc1ccccc1` [phenylmethylsulfonyl fluoride], the “inhibition of the enzyme (in words)” value with PLP-Ia is given as “undergoes inhibition”. Further, the “Relative Activity” value in the test on PLP-Ia (2000 µM) is on record as 18.3%.
For the compound `Cc1ccc(S(=O)(=O)N[C@@H](CCCNC(=N)N)C(=O)CCl)cc1` [tosyl-L-arginine chloromethyl ketone], the “Relative Activity” value with PLP-Ia (100 µM) amounted to 79.1%.
With `Cc1ccc(S(=O)(=O)N[C@@H](CCCCN)C(=O)CCl)cc1` [tosyl-L-lysine chloromethyl ketone], the “inhibition of the enzyme (in words)” value in the test on PLP-Ia was “undergoes inhibition”; on Achromobacter protease I it was “strongly inhibited”. In the test on PLP-Ia (100 µM), the “Relative Activity” value is given as 0%.
As to `Cc1ccc(S(=O)(=O)N[C@@H](Cc2ccccc2)C(=O)CCl)cc1` [tosyl-L-phenylalanine chloromethyl ketone], in the test on PLP-Ia (1000 µM), the “Relative Activity” value turned out to be 92.2%. Further, at Achromobacter protease I, the “inhibition of the enzyme (in words)” value is listed as “not inhibited”.
Take CoCℓ₂: the “Relative Activity” value in the test with PLP-Ia (1000 µM) worked out at 98.1%.
As to MgCℓ₂, the “Relative Activity” value in the test with PLP-Ia (1000 µM) was found to be 95.3%.
In the case of MnCℓ₂, in the test on PLP-Ia (1000 µM), the “Relative Activity” value is recorded as 101.3%.
For NiCℓ₂, the “Relative Activity” value in the test with PLP-Ia (1000 µM) came out at 83.8%.
In the case of diisopropyl phosphochloride, on Achromobacter protease I, the “inhibition of the enzyme (in words)” value is “strongly inhibited”.

Source of the values: patent EP0367302A2, “Process for semi-synthesis of human insulin, water-soluble cross-linked Achromobacter protease I for use therein and a process for preparing the same” (priority 1982, dated 1983).
